Measured values published in the NIST ThermoML archive (doi:10.1021/je060271a).
“And” between values parts separate entries of the source, which are not always exact repeats. Identical values can stand only once.

Conditions: Liquid, Vibrating tube method

CCCCCCC(=O)OCC(COC(=O)CCCCCC)(COC(=O)CCCCCC)COC(=O)CCCCCC [pentaerythritol tetraheptanoate]
Conditions	mass density
283.15 K, 2785.2 kPa	987.5 kg/m3
283.15 K, 4763 kPa	988.5 kg/m3
283.15 K, 4768.7 kPa	988.7 kg/m3
283.15 K, 5143.5 kPa	988.8 kg/m3
283.15 K, 5150.3 kPa	988.9 kg/m3
283.15 K, 5157.6 kPa	988.7 kg/m3
283.15 K, 5164.1 kPa	988.8 kg/m3
283.15 K, 5170.9 kPa	988.9 kg/m3
283.15 K, 5178.5 kPa	988.9 kg/m3
283.15 K, 5185.2 kPa	988.8 kg/m3
283.15 K, 5558.2 kPa	989.1 kg/m3
283.15 K, 5573.4 kPa	989.1 kg/m3
283.15 K, 5748.5 kPa	989.3 kg/m3
283.15 K, 5758 kPa	989.2 kg/m3
283.15 K, 5766.1 kPa	989.3 kg/m3
283.15 K, 9627.4 kPa	991.5 kg/m3
283.15 K, 9754 kPa	991.6 kg/m3
283.15 K, 9827.4 kPa	991.6 kg/m3
283.15 K, 15376 kPa	994.5 kg/m3
283.15 K, 15402 kPa	994.5 kg/m3
283.15 K, 15424 kPa	994.5 kg/m3
283.15 K, 15447 kPa	994.5 kg/m3
283.15 K, 15473 kPa	994.5 kg/m3
283.15 K, 15496 kPa	994.5 kg/m3
283.15 K, 15518 kPa	994.4 kg/m3
283.15 K, 15545 kPa	994.6 kg/m3
283.15 K, 16561 kPa	995.2 kg/m3
283.15 K, 16643 kPa	995.1 kg/m3
283.15 K, 16700 kPa	995.2 kg/m3
283.15 K, 17302 kPa	995.5 kg/m3
283.15 K, 17330 kPa	995.5 kg/m3
283.15 K, 17392 kPa	995.5 kg/m3
283.15 K, 17420 kPa	995.6 kg/m3
283.15 K, 19724 kPa	996.7 kg/m3
283.15 K, 24690 kPa	999.4 kg/m3
283.15 K, 24805 kPa	999.3 kg/m3
283.15 K, 25965 kPa	999.9 kg/m3
283.15 K, 26012 kPa	1000.1 kg/m3
283.15 K, 26052 kPa	1000.1 kg/m3
283.15 K, 26093 kPa	1000.1 kg/m3
283.15 K, 26133 kPa	1000.1 kg/m3
283.15 K, 26183 kPa	1000.1 kg/m3
283.15 K, 26224 kPa	1000.1 kg/m3
283.15 K, 26317 kPa	1000.1 kg/m3
283.15 K, 26361 kPa	1000.1 kg/m3
283.15 K, 26458 kPa	1000.2 kg/m3
283.15 K, 26749 kPa	1000.4 kg/m3
283.15 K, 26807 kPa	1000.4 kg/m3
283.15 K, 26833 kPa	1000.4 kg/m3
283.15 K, 26860 kPa	1000.5 kg/m3
283.15 K, 26892 kPa	1000.5 kg/m3
283.15 K, 26918 kPa	1000.5 kg/m3
283.15 K, 26978 kPa	1000.5 kg/m3
283.15 K, 27117 kPa	1000.7 kg/m3
283.15 K, 27150 kPa	1000.5 kg/m3
283.15 K, 27176 kPa	1000.7 kg/m3
283.15 K, 27209 kPa	1000.6 kg/m3
283.15 K, 27237 kPa	1000.6 kg/m3
283.15 K, 27264 kPa	1000.6 kg/m3
283.15 K, 27324 kPa	1000.7 kg/m3
283.15 K, 27352 kPa	1000.7 kg/m3
283.15 K, 27599 kPa	1000.8 kg/m3
283.15 K, 27618 kPa	1000.8 kg/m3
283.15 K, 27642 kPa	1000.9 kg/m3
283.15 K, 27661 kPa	1000.8 kg/m3
283.15 K, 27681 kPa	1000.9 kg/m3
283.15 K, 27896 kPa	1001.1 kg/m3
283.15 K, 27916 kPa	1001.1 kg/m3
283.15 K, 27936 kPa	1000.9 kg/m3
283.15 K, 27956 kPa	1001 kg/m3
283.15 K, 28022 kPa	1001 kg/m3
283.15 K, 30230 kPa	1002.1 kg/m3
283.15 K, 33971 kPa	1003.9 kg/m3
283.15 K, 34009 kPa	1004.1 kg/m3
283.15 K, 34041 kPa	1003.9 kg/m3
283.15 K, 34067 kPa	1004 kg/m3
283.15 K, 34100 kPa	1004.1 kg/m3
283.15 K, 34146 kPa	1004.3 kg/m3
283.15 K, 34179 kPa	1004 kg/m3
283.15 K, 34214 kPa	1004.2 kg/m3
283.15 K, 34255 kPa	1004.1 kg/m3
283.15 K, 34291 kPa	1004.1 kg/m3
283.15 K, 34334 kPa	1004.2 kg/m3 and 1004.1 kg/m3
283.15 K, 34346 kPa	1004.1 kg/m3
283.15 K, 34372 kPa	1004.2 kg/m3
283.15 K, 34412 kPa	1004.3 kg/m3
283.15 K, 34450 kPa	1004.2 kg/m3
283.15 K, 34481 kPa	1004.2 kg/m3
283.15 K, 34492 kPa	1004.2 kg/m3
283.15 K, 34503 kPa	1004.4 kg/m3
283.15 K, 34516 kPa	1004.2 kg/m3
283.15 K, 34528 kPa	1004.3 kg/m3
283.15 K, 34542 kPa	1004.4 kg/m3
283.15 K, 34553 kPa	1004.4 kg/m3
283.15 K, 34565 kPa	1004.4 kg/m3
283.15 K, 34574 kPa	1004.3 kg/m3
283.15 K, 34579 kPa	1004.3 kg/m3
283.15 K, 34594 kPa	1004.5 kg/m3
283.15 K, 34601 kPa	1004.3 kg/m3
283.15 K, 34603 kPa	1004.2 kg/m3
283.15 K, 34606 kPa	1004.3 kg/m3
303.14 K, 99.6 kPa	970.8 kg/m3
303.14 K, 99.8 kPa	970.7 kg/m3 and 970.8 kg/m3 and 970.9 kg/m3
303.14 K, 99.9 kPa	970.8 kg/m3 and 970.9 kg/m3 and 970.7 kg/m3
303.14 K, 100.1 kPa	970.7 kg/m3 and 970.6 kg/m3
303.14 K, 100.3 kPa	970.7 kg/m3
303.14 K, 100.6 kPa	970.8 kg/m3
303.14 K, 101.7 kPa	970.7 kg/m3
303.14 K, 103.8 kPa	970.7 kg/m3
303.14 K, 107.4 kPa	970.8 kg/m3
303.14 K, 118.5 kPa	970.8 kg/m3
303.14 K, 136.8 kPa	970.7 kg/m3
